Test results: US10106530B2, “Pyrazolyl substituted tetrahydropyranylsulfones” (GRÜNENTHAL GMBH, priority 2015, dated 2018)

Biological target: T1, Human CaV2.2 channels (Homo sapiens, UniProt Q00975)
T1 construct: expressed in transfected cells; also stably expressing Kir2.3)
Assay: Fluorescence assay for CaV2.2 channels using potassium depolarization to induce channel opening (FLIPR, Fluo 4)
Assay type: cell-based
Conditions: 30 mM KCl assay buffer (inactivated channel state), HEK293 cells; for Activity Category: %-Inhib (CaV2.2) @3 μM @30 mM KCl: 3 μM test compound; for inhibition at 3 µM: HEK293, 3 μM test compound, read-out: Activity Category: %-Inhib (CaV2.2) @3 μM @30 mM KCl
From the text: In the process, the Ca^2+ influx is quantified in the FLIPR assay with the aid of a Ca^2+-sensitive dye (type Fluo-4, Molecular Probes Europe BV, Leiden, the Netherlands) in a fluorescent imaging plate reader (FLIPR 3, Molecular Devices, Sunnyvale, USA), as described hereinafter.
[drawing 69] 2. Assay Descriptions and Biological Data: 2.1 Fluorescence Assay for CaV2.2 Channels Using Potassium Depolarization to Induce Channel Opening
Human CaV2.2 channels were stably expressed in HEK293 cells together with alpha2-delta and beta subunits of voltage gated calcium channels. In addition, an inwardly rectifying potassium channel (Kir2.3) was stably expressed in these cells to augment control of the cell membrane potential by the concentration of extracellular potassium ions. Raise of the extracellular potassium concentration leads to depolarization of the membrane potential and thus regulates the voltage dependent state of CaV2.2 channels. For preparation, cells were seeded in black poly-D-lysine coated 96-well plates (Becton Dickinson, Biocoat 4640) in 100 μL medium [500 mL DMEM/F-12 plus Glutamax (Invitrogen 31331-093) plus 5.5 mL MEM NEAA 100× (Invitrogen 11140-035) plus 50 mL FBS decomplemented (Invitrogen 10270-106) plus 200 μg/mL Geneticin (Invitrogen 10131-027) plus 50 μg/mL Hygromycin B (Invitrogen 10687-010) plus 2 μg/mL Blasticidin (anti-b15b Invivo-Gen) plus 0.2 μg/mL Puromycin (A 11138-03)] at a cell density of 30.000 cells per well. Plates were incubated at 37° C. (5% CO2) for 20 to 23 h. On the day of experiment medium was discarded and cells were loaded with Fluo 4 by addition of 100 μL of basic assay buffer (10 mM HEPES, 1 mM KCl, 149 mM NaCl, 0.8 mM CaCl2, 1.7 mM MgCl2, 10 mM Glucose, 0.1% BSA. pH 7.4) containing 2 μM Fluo 4 (Molecular Probes; F-14201), 0.01% pluronic acid (Molecular Probes; P-6866) and 2.5 mM probenecid (Molecular Probes; P36400). Cells were incubated in the dark at 25° C. for 60 min. Then dye containing buffer was discarded and 100 μL basic (1 mM KCl) or alternative (30 mM KCl) assay buffer was added. The alternative assay buffer contained altered concentrations of KCl (30 mM) and NaCl (120 mM) and was used in order to promote the inactivated channel state. After that 25 μL of basic or alternative assay buffer with or without test compound were added and cells were incubated again in the dark at 25° C. for 15 min. Fluorescence intensity was measured on a FLIPR 3 instrument (Molecular Devices Corp., Sunnyvale, Calif.) with excitation at 480 nm and emission at 535 nm. After continuously reading fluorescence for 30 sec, 50 μL of basic assay buffer containing 210 mM KCl(NaCl omitted) were added for depolarization. Peak fluorescent signal intensity was determined and the amplitude of the peak signal, normalized to base line, was used to measure channel inhibition by test compounds.

T1 sequence (Q00975 whole entry): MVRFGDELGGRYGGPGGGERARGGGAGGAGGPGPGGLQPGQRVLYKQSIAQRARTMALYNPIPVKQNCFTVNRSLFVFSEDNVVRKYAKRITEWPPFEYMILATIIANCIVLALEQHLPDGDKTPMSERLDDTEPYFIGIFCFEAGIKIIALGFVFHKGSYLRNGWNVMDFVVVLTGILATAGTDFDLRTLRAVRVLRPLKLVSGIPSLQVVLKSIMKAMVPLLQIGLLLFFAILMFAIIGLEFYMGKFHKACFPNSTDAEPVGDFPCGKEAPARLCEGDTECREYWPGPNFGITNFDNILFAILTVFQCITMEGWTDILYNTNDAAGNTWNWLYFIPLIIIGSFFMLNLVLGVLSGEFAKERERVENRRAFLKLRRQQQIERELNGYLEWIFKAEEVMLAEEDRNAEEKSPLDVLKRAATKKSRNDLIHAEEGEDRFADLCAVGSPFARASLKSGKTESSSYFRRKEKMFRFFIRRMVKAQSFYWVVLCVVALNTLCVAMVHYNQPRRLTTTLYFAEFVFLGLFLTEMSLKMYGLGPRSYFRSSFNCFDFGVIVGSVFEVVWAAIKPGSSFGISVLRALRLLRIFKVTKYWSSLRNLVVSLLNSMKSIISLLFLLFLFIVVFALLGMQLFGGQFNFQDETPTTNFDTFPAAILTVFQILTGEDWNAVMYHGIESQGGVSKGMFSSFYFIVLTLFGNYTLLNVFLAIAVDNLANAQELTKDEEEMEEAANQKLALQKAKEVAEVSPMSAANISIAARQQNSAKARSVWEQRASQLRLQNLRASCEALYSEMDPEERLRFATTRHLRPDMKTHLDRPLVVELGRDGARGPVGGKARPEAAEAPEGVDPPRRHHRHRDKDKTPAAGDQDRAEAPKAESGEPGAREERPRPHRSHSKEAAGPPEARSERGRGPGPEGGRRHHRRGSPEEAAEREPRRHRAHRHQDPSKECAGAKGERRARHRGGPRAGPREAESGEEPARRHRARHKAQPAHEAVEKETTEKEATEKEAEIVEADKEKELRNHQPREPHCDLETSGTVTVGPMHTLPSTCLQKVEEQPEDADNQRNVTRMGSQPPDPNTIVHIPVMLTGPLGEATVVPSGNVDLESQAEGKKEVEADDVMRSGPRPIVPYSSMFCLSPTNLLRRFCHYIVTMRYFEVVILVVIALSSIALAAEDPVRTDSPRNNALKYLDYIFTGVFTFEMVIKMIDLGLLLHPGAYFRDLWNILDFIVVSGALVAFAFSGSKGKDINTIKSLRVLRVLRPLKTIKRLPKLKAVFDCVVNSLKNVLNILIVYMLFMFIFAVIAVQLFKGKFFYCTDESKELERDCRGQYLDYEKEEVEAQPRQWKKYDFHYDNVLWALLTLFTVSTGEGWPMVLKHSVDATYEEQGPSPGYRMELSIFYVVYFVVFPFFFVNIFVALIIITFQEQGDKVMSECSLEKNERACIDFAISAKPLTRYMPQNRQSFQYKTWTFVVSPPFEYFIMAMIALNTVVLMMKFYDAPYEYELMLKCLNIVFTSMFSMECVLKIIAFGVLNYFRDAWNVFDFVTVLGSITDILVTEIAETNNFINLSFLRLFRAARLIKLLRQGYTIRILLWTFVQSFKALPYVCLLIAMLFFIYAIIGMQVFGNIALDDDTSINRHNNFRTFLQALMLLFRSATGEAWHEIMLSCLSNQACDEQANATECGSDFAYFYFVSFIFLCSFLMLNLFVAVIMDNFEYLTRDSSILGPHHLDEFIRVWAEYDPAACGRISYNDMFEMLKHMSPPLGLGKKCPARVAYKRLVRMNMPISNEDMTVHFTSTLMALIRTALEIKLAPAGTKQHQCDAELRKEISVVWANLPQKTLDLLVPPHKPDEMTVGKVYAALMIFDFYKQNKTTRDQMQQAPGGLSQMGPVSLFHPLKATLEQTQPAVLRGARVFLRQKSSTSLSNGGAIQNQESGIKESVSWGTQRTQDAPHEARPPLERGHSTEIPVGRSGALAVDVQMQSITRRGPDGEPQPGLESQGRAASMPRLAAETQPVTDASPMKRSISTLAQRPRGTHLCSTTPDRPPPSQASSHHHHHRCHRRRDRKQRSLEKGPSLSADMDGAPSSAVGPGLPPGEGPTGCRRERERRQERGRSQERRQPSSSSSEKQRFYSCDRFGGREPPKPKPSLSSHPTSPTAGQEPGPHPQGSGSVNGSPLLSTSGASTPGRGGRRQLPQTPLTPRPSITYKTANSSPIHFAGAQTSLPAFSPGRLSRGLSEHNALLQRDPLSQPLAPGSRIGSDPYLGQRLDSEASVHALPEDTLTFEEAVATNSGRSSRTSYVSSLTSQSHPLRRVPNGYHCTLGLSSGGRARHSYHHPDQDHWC

COCCS(=O)(=O)c1cc(C2CC(C)(S(=O)(=O)c3cccc(C(F)(F)F)c3)CCO2)[nH]n1 (stereo not drawn) [Example 5 cis-EN2, 3-(2-Methoxy-ethylsulfonyl)-5-[4-methyl-4-[[3-(trifluoromethyl)phenyl]sulfonyl]-tetrahydro-pyran-2-yl]-1H-pyrazole]
Activity Category: %-Inhib (CaV2.2) @3 μM @30 mM KCl (listed as 5 cis-EN2): C (%-Inhibition >40% up to ≤75%)

CC1(S(=O)(=O)c2cccc(C(F)(F)F)c2)CCOC(c2cc(S(C)(=O)=O)n[nH]2)C1 (stereo not drawn) [Example 37 cis-EN2, 5-Methylsulfonyl-3-[4-methyl-4-[[3-(trifluoromethyl)phenyl]sulfonyl]-tetrahydro-pyran-2-yl]-1H-pyrazole]
Activity Category: %-Inhib (CaV2.2) @3 μM @30 mM KCl (listed as 37 cis-EN2): B (%-Inhibition >75% up to ≤95%)

CC1(S(=O)(=O)c2cccc(C(F)(F)F)c2)CCOC(c2cc(OCC(F)F)n[nH]2)C1 (stereo not drawn) [Example 32 cis-EN2, 5-(2,2-Difluoro-ethoxy)-3-[4-methyl-4-[[3-(trifluoromethyl)phenyl]sulfonyl]-tetrahydro-pyran-2-yl]-1H-pyrazole]
Activity Category: %-Inhib (CaV2.2) @3 μM @30 mM KCl: B (%-Inhibition >75% up to ≤95%)

CC(C)(O)c1cc(C2CC(C)(S(=O)(=O)c3cccc(C(F)(F)F)c3)CCO2)[nH]n1 (stereo not drawn) [Example 19 cis-EN2, 2-[5-[4-Methyl-4-[[3-(trifluoromethyl)phenyl]sulfonyl]-tetrahydro-pyran-2-yl]-1H-pyrazol-3-yl]-propan-2-ol]
Activity Category: %-Inhib (CaV2.2) @3 μM @30 mM KCl (listed as 19 cis-EN2): C (%-Inhibition >40% up to ≤75%)

CC1(S(=O)(=O)c2cccc(C(F)(F)F)c2)CCOC(c2cc(S(=O)(=O)C3COC3)n[nH]2)C1 (stereo not drawn) [Example 4 cis-EN1, 5-[4-Methyl-4-[[3-(trifluoromethyl)phenyl]sulfonyl]-tetrahydro-pyran-2-yl]-3-(oxetan-3-ylsulfonyl)-1H-pyrazole]
Activity Category: %-Inhib (CaV2.2) @3 μM @30 mM KCl (listed as 4 cis-EN1): C (%-Inhibition >40% up to ≤75%)

CC(C)(C)CS(=O)(=O)c1cc(C2CC(C)(S(=O)(=O)c3cccc(C(F)(F)F)c3)CCO2)[nH]n1 (stereo not drawn) [Example 36 cis-EN2, 3-(2,2-Dimethyl-propylsulfonyl)-5-[4-methyl-4-[[3-(trifluoromethyl)phenyl]sulfonyl]-tetrahydro-pyran-2-yl]-1H-pyrazole]
Activity Category: %-Inhib (CaV2.2) @3 μM @30 mM KCl: A (%-Inhibition >95%)

CC(C)(C#N)c1cc(C2CC(C)(S(=O)(=O)c3cccc(C(F)(F)F)n3)CCO2)[nH]n1 (stereo not drawn) [Example 38 cis-EN1, 2-Methyl-2-[5-[4-methyl-4-[[6-(trifluoromethyl)-pyridin-2-yl]sulfonyl]-tetrahydro-pyran-2-yl]-1H-pyrazol-3-yl]-propionitrile]
Activity Category: %-Inhib (CaV2.2) @3 μM @30 mM KCl (listed as 38 cis-EN1): C (%-Inhibition >40% up to ≤75%)

CC1(S(=O)(=O)c2cccc(C(F)(F)F)c2)CCOC(c2cc(S(=O)(=O)C(F)(F)F)n[nH]2)C1 (stereo not drawn) [Example 27 cis-EN1, 3-(Trifluoro-methylsulfonyl)-5-[4-methyl-4-[[3-(trifluoromethyl)phenyl]sulfonyl]-tetrahydro-pyran-2-yl]-1H-pyrazole]
inhibition at 3 µM: > 95%

CC1(S(=O)(=O)c2cccc(C(F)(F)F)c2)CCOC(c2cc(C3(O)COC3)n[nH]2)C1 (stereo not drawn) [Example 18 cis-EN1, 3-[5-[4-Methyl-4-[[3-(trifluoromethyl)phenyl]sulfonyl]-tetrahydro-pyran-2-yl]-1H-pyrazol-3-yl]-oxetan-3-ol]
inhibition at 3 µM: 40 to 75%

CC(C)(O)c1cc(C2CC(C)(S(=O)(=O)c3cccc(C(F)(F)F)c3)CCO2)[nH]n1 (stereo not drawn) [Example 19 cis-EN1, 2-[5-[4-Methyl-4-[[3-(trifluoromethyl)phenyl]sulfonyl]-tetrahydro-pyran-2-yl]-1H-pyrazol-3-yl]-propan-2-ol]
Activity Category: %-Inhib (CaV2.2) @3 μM @30 mM KCl (listed as 19 cis-EN1): B (%-Inhibition >75% up to ≤95%)

CC1(S(=O)(=O)c2cccc(C(F)(F)F)c2)CCOC(c2cc(C(F)F)[nH]n2)C1 (racemic) [[trans-rac] Example 12, 5-(Difluoro-methyl)-3-[4-methyl-4-[[3-(trifluoromethyl)phenyl]sulfonyl]-tetrahydro-pyran-2-yl]-1H-pyrazole]
inhibition at 3 µM: 75 to 95%

CC1(S(=O)(=O)c2cccc(C(F)(F)F)c2)CCOC(c2cc(C(F)F)[nH]n2)C1 (stereo not drawn) [[cis-EN1] Example 12, 5-(Difluoro-methyl)-3-[4-methyl-4-[[3-(trifluoromethyl)phenyl]sulfonyl]-tetrahydro-pyran-2-yl]-1H-pyrazole]
inhibition at 3 µM: 75 to 95%

CC1(S(=O)(=O)c2cccc(C(F)(F)F)c2)CCOC(c2cc(S(=O)(=O)C(F)F)n[nH]2)C1 (stereo not drawn) [[cis-EN1] Example 1, 3-(Difluoro-methylsulfonyl)-5-[4-methyl-4-[[3-(trifluoromethyl)phenyl]sulfonyl]-tetrahydro-pyran-2-yl]-1H-pyrazole]
inhibition at 3 µM: 75 to 95%

CC(F)(F)c1cc(C2CC(C)(S(=O)(=O)c3cccc(C(F)(F)F)c3)CCO2)[nH]n1 (stereo not drawn) [Example 13 cis-EN1, 3-(1,1-Difluoro-ethyl)-5-[4-methyl-4-[[3-(trifluoromethyl)phenyl]sulfonyl]-tetrahydro-pyran-2-yl]-1H-pyrazole]
inhibition at 3 µM: > 95%

CC(C)(C(N)=O)c1cc(C2CC(C)(S(=O)(=O)c3cccc(C(F)(F)F)c3)CCO2)[nH]n1 (stereo not drawn) [Example 30 cis-EN2, 2-Methyl-2-[5-[4-methyl-4-[[3-(trifluoromethyl)phenyl]sulfonyl]-tetrahydro-pyran-2-yl]-1H-pyrazol-3-yl]-propionamide]
inhibition at 3 µM: 40 to 75%

CC1(S(=O)(=O)c2cccc(C(F)(F)F)c2)CCOC(c2cc(CC(F)(F)F)n[nH]2)C1 (racemic) [Example 15 cis-rac, 5-[4-Methyl-4-[[3-(trifluoromethyl)phenyl]sulfonyl]-tetrahydro-pyran-2-yl]-3-(2,2,2-trifluoro-ethyl)-1H-pyrazole]
inhibition at 3 µM: > 95%
